Experimental findings from patent publication US6770122B2, “Copper deposition using copper formate complexes” (E. I. du Pont de Nemours and Company, priority 2001, dated 2004) are described below.

The procedure of series [1]: A common technique used in dissolving metal complexes in supercritical carbon dioxide is to add a co-solvent (Cross et al.). The requirements of a co-solvent have been defined (Cross et al.). Methanol and other alcohols are commonly used. […] In these measurements, the complex was dissolved in 0.25-1 mL of methanol or 1-butanol and then shaken with 5-10 mL hexane; solubility was indicated by formation of a homogeneous blue solution. Alcohols such as methanol and 1-butanol are totally miscible with supercritical carbon dioxide at ambient temperatures and high pressure (Cross et al). Between 2 to 5% cosolvent is typically used in order to retain supercritical properties of the solvent at reasonable temperatures and pressures.

A short description of series [2]: Solubility in hexane, judged by blue colour of the solution. The settings on record: no co-solvent, qualitative.
Method: Copper formate complexes were prepared using 1-octyl-2-ethyl-4-methylimidazole and 1-hexyl-2-ethyl-4-methylimidazole as ligands.

On to `CC(C)(C)c1ccncc1` [4-t-butylpyridine], for which the “solubility in hexane with co-solvent (or supercritical carbon dioxide with co-solvent)” value in series [1] is recorded as 4-t-butylpyridine. On the same count and under the same terms, then `CCCCC(CC)Cn1cccn1` (centres unmarked) [1-(2-ethylhexyl)pyrazole], with 1-(2-ethylhexyl)pyrazole.

As for `CCCCC(CC)Cn1cc(C)nc1CC` (centres unmarked) [1-(2-ethylhexyl)-2-ethyl-4-methylimidazole], the “solubility in hexane with co-solvent (or supercritical carbon dioxide with co-solvent)” value in series [1] is recorded as 1-(2-ethylhexyl)-2-ethyl-4-methyl-. For “Cu(1-octyl-4-ethyl-2-methylimidazole)2(HCOO)2H2O”, the “solubility in hexane (blue color of solution)” value is “dissolves in hexane to yield a blue solution” in series [2] and “soluble in hexane” in series [2] (listed as Cu(1-octyl-4-ethyl-2-methylimidazole)2(HCOO)2H2O).
